Assay results reported in PubChem BioAssay (NCI).
Several values for one entry are separate records, joined by “and”; a condition that tells them apart may be missing. Identical values can stand only once.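 The compound was tested at five concentrations on cells cultured in 96-well plates, with a 48-hour exposure period. Abbreviation: GI50, concentration required for 50% inhibition of growth. At the TGI there is no net growth.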

Experiments:
Test in all cases: NCI tumour cell line growth inhibition, 48 h
PC-3 prostate = system: PC-3 prostate
DU-145 prostate = system: DU-145 prostate
MDA-MB-435 = system: MDA-MB-435
HOP-92 NSCLC = system: HOP-92 NSCLC
HS 578T breast = system: HS 578T breast
T-47D breast = system: T-47D breast
MCF7 breast = system: MCF7 breast
UACC-257 melanoma = system: UACC-257 melanoma
BT-549 breast = system: BT-549 breast
NCI/ADR-RES ovarian = system: NCI/ADR-RES ovarian
NCI-H23 lung = system: NCI-H23 lung
MDA-MB-231 breast = system: MDA-MB-231 breast
NCI-H226 lung = system: NCI-H226 lung
A549 NSCLC = system: A549 NSCLC
HL-60(TB) leukemia = system: HL-60(TB) leukemia
HCT-15 colon = system: HCT-15 colon
HOP-62 NSCLC = system: HOP-62 NSCLC
SK-MEL-5 melanoma = system: SK-MEL-5 melanoma
ACHN renal = system: ACHN renal
OVCAR-4 ovarian = system: OVCAR-4 ovarian
EKVX NSCLC = system: EKVX NSCLC
786-0 renal = system: 786-0 renal
COLO 205 colon = system: COLO 205 colon
SN12C renal = system: SN12C renal
MOLT-4 leukemia = system: MOLT-4 leukemia
SK-MEL-2 melanoma = system: SK-MEL-2 melanoma
HT29 colon = system: HT29 colon
RPMI-8226 leukemia = system: RPMI-8226 leukemia
U251 CNS = system: U251 CNS
NCI-H522 lung = system: NCI-H522 lung
OVCAR-8 ovarian = system: OVCAR-8 ovarian
IGROV1 ovarian = system: IGROV1 ovarian
HCT-116 colon = system: HCT-116 colon
SNB-75 CNS = system: SNB-75 CNS
SW-620 colon = system: SW-620 colon
CAKI-1 renal = system: CAKI-1 renal
SF-268 CNS = system: SF-268 CNS
M14 melanoma = system: M14 melanoma
HCC-2998 colon = system: HCC-2998 colon
OVCAR-5 ovarian = system: OVCAR-5 ovarian
SK-MEL-28 melanoma = system: SK-MEL-28 melanoma
SK-OV-3 ovarian = system: SK-OV-3 ovarian
TK-10 renal = system: TK-10 renal
UO-31 renal = system: UO-31 renal
NCI-H460 lung = system: NCI-H460 lung
UACC-62 melanoma = system: UACC-62 melanoma
LOX IMVI melanoma = system: LOX IMVI melanoma
A498 renal = system: A498 renal
SF-295 CNS = system: SF-295 CNS
CCRF-CEM leukemia = system: CCRF-CEM leukemia
KM12 colon = system: KM12 colon
RXF 393 renal = system: RXF 393 renal
MALME-3M melanoma = system: MALME-3M melanoma
OVCAR-3 ovarian = system: OVCAR-3 ovarian
K-562 leukemia = system: K-562 leukemia
SR leukemia = system: SR leukemia
SNB-19 CNS = system: SNB-19 CNS

C/C=C/CC(C)C(O)C1C(=O)NC(CC)C(=O)N(C)CC(=O)N(C)C(CC(C)C)C(=O)NC(C(C)C)C(=O)N(C)C(CC(C)C)C(=O)NC(C)C(=O)NC(C)C(=O)N(C)C(CC(C)C)C(=O)N(C)C(CC(C)C)C(=O)N(C)C(C(C)C)C(=O)N1C (stereo not drawn)
GI50 (PC-3 prostate): 0.97 µM
TGI (PC-3 prostate): > 32.5 µM
GI50 (DU-145 prostate): 1.43 µM
TGI (DU-145 prostate): > 32.5 µM
GI50 (MDA-MB-435): 0.609 µM
TGI (MDA-MB-435): 4.62 µM
GI50 (HOP-92 NSCLC): 1.09 µM
TGI (HOP-92 NSCLC): 9.02 µM and 14.8 µM
GI50 (HS 578T breast): 3.36 µM
TGI (HS 578T breast): 28.2 µM
GI50 (T-47D breast): 0.842 µM
TGI (T-47D breast): 5.32 µM
GI50 (MCF7 breast): 2.71 µM
TGI (MCF7 breast): > 32.5 µM
GI50 (UACC-257 melanoma): 0.747 µM
TGI (UACC-257 melanoma): 5.57 µM and 8.67 µM
GI50 (BT-549 breast): 2.02 µM
TGI (BT-549 breast): 6.92 µM
GI50 (NCI/ADR-RES ovarian): 1.44 µM
TGI (NCI/ADR-RES ovarian): > 32.5 µM
GI50 (NCI-H23 lung): 1.2 µM
TGI (NCI-H23 lung): > 32.5 µM and 28.6 µM
GI50 (MDA-MB-231 breast): 3.79 µM
TGI (MDA-MB-231 breast): 9.57 µM
GI50 (NCI-H226 lung): 2.29 µM
TGI (NCI-H226 lung): 6.66 µM and 13.8 µM

COC(=O)/C=C/c1cc(O)c2c(c1)[C@H](C(=O)OC)[C@@H](c1ccc(O)c(O)c1)O2
TGI (A549 NSCLC): > 100 µM
TGI (PC-3 prostate): > 100 µM
GI50 (HL-60(TB) leukemia): 0.0293 µM
TGI (HL-60(TB) leukemia): 0.0801 µM
TGI (HCT-15 colon): > 100 µM
TGI (HOP-62 NSCLC): > 58.7 µM
TGI (SK-MEL-5 melanoma): 2.18 µM
TGI (ACHN renal): > 85.2 µM
TGI (OVCAR-4 ovarian): > 100 µM
TGI (HOP-92 NSCLC): > 94 µM
TGI (EKVX NSCLC): > 85 µM
TGI (786-0 renal): > 100 µM
TGI (HS 578T breast): 78.3 µM
TGI (COLO 205 colon): 61.6 µM
TGI (SN12C renal): > 74.1 µM
TGI (MCF7 breast): > 100 µM
TGI (MOLT-4 leukemia): > 45.7 µM
TGI (SK-MEL-2 melanoma): > 70 µM
TGI (HT29 colon): > 37.9 µM
TGI (RPMI-8226 leukemia): > 41 µM
TGI (U251 CNS): > 100 µM
TGI (NCI-H522 lung): 0.838 µM
TGI (OVCAR-8 ovarian): 4.37 µM
TGI (IGROV1 ovarian): > 38.8 µM
TGI (HCT-116 colon): > 72 µM
TGI (SNB-75 CNS): 0.0711 µM
TGI (UACC-257 melanoma): > 100 µM
TGI (BT-549 breast): 30.3 µM
TGI (SW-620 colon): > 100 µM
TGI (CAKI-1 renal): > 100 µM
TGI (SF-268 CNS): > 87 µM
TGI (M14 melanoma): > 45.2 µM
TGI (HCC-2998 colon): 54.6 µM
TGI (OVCAR-5 ovarian): > 100 µM
TGI (SK-MEL-28 melanoma): > 71 µM
TGI (SK-OV-3 ovarian): > 79.8 µM
TGI (TK-10 renal): > 100 µM
TGI (UO-31 renal): > 63.5 µM
TGI (NCI-H460 lung): 24.5 µM
TGI (UACC-62 melanoma): > 59.5 µM
TGI (LOX IMVI melanoma): > 82.6 µM
TGI (A498 renal): > 28 µM
TGI (SF-295 CNS): > 93.2 µM
TGI (CCRF-CEM leukemia): 5.18 µM
TGI (KM12 colon): 14.5 µM
TGI (NCI-H23 lung): > 100 µM
GI50 (MDA-MB-231 breast): 0.0497 µM
TGI (MDA-MB-231 breast): > 100 µM
TGI (NCI-H226 lung): > 22.7 µM

Cc1ccnc2[nH]c(-c3ccccc3)cc(=O)c12
TGI (A549 NSCLC): > 100 µM
TGI (PC-3 prostate): > 100 µM
TGI (DU-145 prostate): > 100 µM
TGI (ACHN renal): 63.3 µM
TGI (OVCAR-4 ovarian): > 100 µM
TGI (HOP-92 NSCLC): 93.7 µM
GI50 (EKVX NSCLC): > 100 µM
TGI (EKVX NSCLC): > 100 µM
TGI (786-0 renal): > 100 µM
TGI (RXF 393 renal): 0.0184 µM
TGI (HS 578T breast): > 100 µM
TGI (T-47D breast): > 100 µM
GI50 (SN12C renal): 0.0399 µM
TGI (MOLT-4 leukemia): > 100 µM
TGI (HT29 colon): 0.0259 µM
GI50 (RPMI-8226 leukemia): 0.0278 µM
TGI (U251 CNS): > 100 µM
TGI (NCI-H522 lung): 0.192 µM
GI50 (OVCAR-8 ovarian): 0.0193 µM
TGI (OVCAR-8 ovarian): > 100 µM
GI50 (IGROV1 ovarian): 1.84 µM
TGI (IGROV1 ovarian): > 100 µM
TGI (HCT-116 colon): 10.6 µM
TGI (BT-549 breast): > 100 µM
TGI (SW-620 colon): > 100 µM
GI50 (SF-268 CNS): 0.0171 µM
TGI (SF-268 CNS): > 100 µM
GI50 (OVCAR-5 ovarian): 20.9 µM
TGI (OVCAR-5 ovarian): 51.2 µM
TGI (MALME-3M melanoma): > 100 µM
TGI (SK-MEL-28 melanoma): > 100 µM
TGI (TK-10 renal): 58.9 µM
TGI (NCI-H460 lung): > 100 µM
TGI (KM12 colon): 12.8 µM
GI50 (NCI-H23 lung): 0.0692 µM
GI50 (MDA-MB-231 breast): 0.134 µM
GI50 (NCI-H226 lung): 1.46 µM
TGI (NCI-H226 lung): 5.96 µM and 32.5 µM

CC(=O)OC(OC(C)=O)n1cc(C=O)c2ccccc21
TGI (A549 NSCLC): > 100 µM
TGI (PC-3 prostate): > 100 µM
TGI (DU-145 prostate): > 100 µM
TGI (HL-60(TB) leukemia): > 100 µM
TGI (HCT-15 colon): > 100 µM
TGI (HOP-62 NSCLC): > 100 µM
TGI (SK-MEL-5 melanoma): > 100 µM
TGI (ACHN renal): > 100 µM
TGI (OVCAR-4 ovarian): > 100 µM
TGI (HS 578T breast): > 100 µM
TGI (COLO 205 colon): > 100 µM
TGI (T-47D breast): > 100 µM
TGI (SN12C renal): > 100 µM
TGI (OVCAR-3 ovarian): > 100 µM
TGI (MCF7 breast): > 100 µM
TGI (MOLT-4 leukemia): > 100 µM
TGI (SK-MEL-2 melanoma): > 100 µM
TGI (HT29 colon): > 100 µM
TGI (RPMI-8226 leukemia): > 100 µM
TGI (U251 CNS): > 100 µM
TGI (NCI-H522 lung): > 100 µM
TGI (OVCAR-8 ovarian): > 100 µM
TGI (HCT-116 colon): > 100 µM
TGI (UACC-257 melanoma): > 100 µM
TGI (SW-620 colon): > 100 µM
TGI (CAKI-1 renal): > 100 µM
TGI (K-562 leukemia): > 100 µM
TGI (M14 melanoma): > 100 µM
TGI (HCC-2998 colon): > 100 µM
TGI (OVCAR-5 ovarian): > 100 µM
TGI (NCI/ADR-RES ovarian): > 100 µM
TGI (SK-MEL-28 melanoma): > 100 µM
TGI (SK-OV-3 ovarian): > 100 µM
TGI (TK-10 renal): > 100 µM
TGI (UO-31 renal): > 100 µM
TGI (NCI-H460 lung): > 100 µM
TGI (SR leukemia): > 100 µM
TGI (LOX IMVI melanoma): > 100 µM
TGI (SNB-19 CNS): > 100 µM
TGI (A498 renal): > 100 µM
TGI (SF-295 CNS): > 100 µM
TGI (CCRF-CEM leukemia): > 100 µM
TGI (NCI-H23 lung): > 100 µM
TGI (MDA-MB-231 breast): > 100 µM
TGI (NCI-H226 lung): > 100 µM
